# Experimental data from patent US5070210A, “Novel ketenimines as intermediates for insecticides” (ICI Americas Inc., priority 1990, dated 1991).
# What was measured:
# Format in all cases: in vivo
# [1] = tested on: Housefly [Musca domestica]; test: Housefly insecticidal test; conditions: μg per 25 female flies; mortality after 48 hours
# In short: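 Residual contact test: acetone dilution, 0.01% peanut oil spreader, solvent evaporated; 25 ♀ flies (1-2 d old) per cage; sugar-water plug; 48 h mortality read. LC50 in μg/25 female flies, from dose-mortality curves; top dose 100 μg/25 flies.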
# [2] = tested on: Tobacco Budworm [Heliothis virescens (Fabricius)] eggs; test: Tobacco budworm egg test; conditions: 2-day old eggs, percent in solution
# In short: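 LC50 is given as percent compound in the dipping solution, fitted from dosage-mortality curves. Two-day-old eggs on paper towel were dipped in acetone solutions (top concentration 0.1%), kept at 78° F on rearing medium, and scored after control hatch and larval feeding.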
# [3] = tested on: Beet Armyworm (Spodoptera exigua); test: Beet armyworm insecticidal test; conditions: second-instar larvae, percent in solution; five days
# Procedure: (§1) The compounds in Tables 1 and 2 above were tested for insecticidal activity using the following testing procedures. LC50 values, based on the results of these tests and calculated according to dosage-mortality curves, are expressed in Table 3.
# Beet Armyworm (Spodoptera exigua):
# Test compounds were diluted in a 50-50 acetone-water solution. Young leaves of sugar beets (Beta vulgaris) were immersed in the test solutions for 2-3 seconds and placed on a wire screen to dry. The dried leaves were placed in petri dishes containing a moistened filter paper and infested with five second-instar beet armyworm larvae. The dishes were placed in a high humidity chamber. Mortality of the larvae was recorded five days later. Test concentrations ranged from 0.1% downward. The LC-50 values are expressed below in Table 3 under the heading "BAW" in terms of percent of the test compound in solution.
# [4] = tested on: Cabbage Looper [Trichoplusia ni (Hubner)]; test: Cabbage looper insecticidal test; conditions: second-instar larvae, percent in solution; 3-5 days
# In short: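 LC50, as percent test compound in solution, derived from dosage-mortality curves; concentrations started at 0.1% and went lower. Five second-instar larvae per dish fed on acetone-water-dipped, dried squash cotyledons in a humid chamber. Deaths recorded 3-5 days post-infestation.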
# [5] = tested on: Aster Leafhopper [Macrosteles fascifrens (Stal)]; test: Aster leafhopper insecticidal test; conditions: adults/nymphs, percent in solution; 48 hours
# In short: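 Three ~10 cm oat seedlings per cup were dipped 2-3 seconds in 50-50 acetone-water compound solutions, dried, and caged with ten adult/nymph leafhoppers. Mortality was counted after 48 hours at concentrations from 0.05% downward. LC50, as percent compound in solution, came from dosage-mortality curves.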
# [6] = tested on: Maize weevil [Sitophilus Zeamais (Motschulsky)]; test: Maize weevil insecticidal test; conditions: adult weevils, percent in solution; 48 hours
# In short: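 LC50, in percent of compound in solution, was derived from dosage-mortality curves after 48 h at about 25 °C. Ten adult weevils per container fed on four corn seeds briefly immersed in acetone:water (50:50) solutions of up to 0.01% and dried.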
# [7] = tested on: Tobacco Budworm [Heliothis virescens (Fabricius)] larvae; test: Tobacco budworm contact test; conditions: second-instar larvae, percent in solution, 5 days
# Procedure: as §1
# Tobacco Budworm [Heliothis virescens (Fabricius)]:
# (a) Contact: Test compounds were diluted in a 50-50 acetone-water solution. Cotton (Gossypium sp.) cotyledons were immersed in the test solutions for 2-3 seconds and placed on a wire screen to dry. The dried leaves were placed in petri dishes containing a moistened piece of filter paper and infested with 5 second-instar tobacco budworm larvae. The dishes were placed in a high humidity chamber for 5 days, and percent mortality of the larvae recorded. Test concentrations ranged from 0.1% downward. The LC-50 values are expressed below in Table 3 under the heading "TBW-C" in terms of percent of the test compound in the solution.
Compound,"LC50, HF [1] [µg]","LC50, TBW, E (TBW-E) [2] [%]","LC50, BAW [3] [%]","LC50, CL [4] [%]","LC50, LH [5] [%]","LC50, MW [6] [%]","LC50, TBW, C (TBW-C) [7] [%]"
CC(C)C(=Nc1cccc(Cl)c1)OCc1cccc(Oc2ccccc2)c1 [Compound 7],8,0.009,0.006,0.006,0.0002,–,–
CC(C)C(=Nc1ccc(Cl)c(Cl)c1)OCc1cccc(Oc2ccccc2)c1 [Compound 14],40,–,0.005,0.004,0.001,0.01,–
CC(C)C(=Nc1ccc(Cl)cc1)OCc1ccc(F)c(Oc2ccccc2)c1 [Compound 23],5,0.017,0.001,0.0005,–,–,–
Clc1ccccc1N=C(OCc1cccc(Oc2ccccc2)c1)C(Cl)Cl [Compound 34],> 100,> 0.1,0.015,0.015,–,–,0.01
CC(C)C(=Nc1ccc(F)cc1)OCc1cccc(Oc2ccccc2)c1 [Compound 46],7,0.016,0.006,0.003,0.002,–,–
CC(C)C(=Nc1ccc(F)cc1)OCc1ccc(F)c(Oc2ccccc2)c1 [Compound 53],2,0.02,0.003,0.0005,–,–,0.0025
CC(C)C(=Nc1cccc(C(F)(F)F)c1)OCc1cccc(Oc2ccccc2)c1 [Compound 67],15,0.01,0.006,0.001,0.00027,–,–
Cc1c(Cl)cccc1N=C(OCc1cccc(Oc2ccccc2)c1)C(Cl)Cl [Compound 97],10,0.04,0.01,0.002,–,–,0.004
CCC(C)C(=Nc1ccc(F)c(Cl)c1)OCc1cccc(Oc2ccccc2)c1 (centres unmarked) [Compound 122],37,0.05,0.01,0.0007,> 0.05,> 0.01,–
Cc1ccc(N=C(OCc2cccc(Oc3ccccc3)c2)C(Cl)Cl)cc1 [Compound 139],4.2,0.05,0.007,0.015,–,–,0.005
O=[N+]([O-])c1ccc(N=C(OCc2cccc(Oc3ccccc3)c2)C(Cl)Cl)cc1 [Compound 173],18,> 0.1,> 0.1,0.02,–,–,> 0.1
O=[N+]([O-])c1cccc(N=C(OCc2cccc(Oc3ccccc3)c2)C(Cl)Cl)c1 [Compound 174],17,> 0.1,0.1,0.03,–,–,–
CC(C)C(=Nc1ccc(Br)cc1)OCc1cccc(Oc2ccc(F)cc2)c1 [Compound 226],16,0.1,–,0.0005,0.002,0.009,0.001
CC(C)C(=Nc1ccc(I)cc1)OCc1cccc(Oc2ccc(F)cc2)c1 [Compound 234],38,0.09,–,0.00045,0.003,> 0.01,0.0013
CC(C)C(=Nc1ccc(F)c(Cl)c1)OCc1cccc(Oc2ccc(Br)cc2)c1 [Compound 238],25,0.05,–,0.0002,> 0.05,> 0.01,0.0004
CC(C)C(=Nc1ccc(F)c(Br)c1)OCc1cccc(Oc2ccc(F)cc2)c1 [Compound 253],10,> 0.1,–,0.00013,0.003,> 0.01,0.0005
CC(C)C(=Nc1ccc(F)c(C(F)(F)F)c1)OCc1ccc(F)c(Oc2ccc(Cl)cc2)c1 [Compound 297],23,0.025,–,0.00027,0.0001,0.0071,0.00075
CC(C)C(=Nc1ccc(F)c(I)c1)OCc1ccc(F)c(Oc2ccc(Cl)cc2)c1 [Compound 326],25,0.03,0.004,0.00015,–,–,0.0005
CC(C)C(=Nc1ccc(F)c(Cl)c1F)OCc1cccc(Oc2ccccc2)c1 [Compound 332],7,0.015,0.0012,0.00045,–,–,0.00075
CC(C)C(=Nc1ccc(F)c(Cl)c1)OCc1cccc(Oc2ccccc2)n1 [Compound 462],7,0.04,–,0.001,0.001,> 0.05,0.0025
CC(C)C(=Nc1ccc(F)c(Cl)c1)OCc1cccc(Oc2ccc(Cl)cc2)n1 [Compound 463],8,0.0075,0.0024,0.00009,0.0003,0.01,–
CC(C)C(=Nc1ccc(F)c(Cl)c1F)OCc1cccc(Oc2ccc(Cl)cc2)n1 [Compound 500],16,0.02,0.002,0.00009,–,–,0.00075
C#CCc1c(F)c(F)c(COC(=Nc2ccc(F)c(Cl)c2)C(C)C)c(F)c1F [Compound 520],5.5,> 0.1,–,> 0.1,0.0003,0.0042,0.00075
CC(C)C(=Nc1ccc(F)c(Cl)c1F)OCc1cccc(Oc2ccc(F)cc2)n1 [Compound 521],7.5,> 0.1,–,0.00005,0.05,0.01,0.0005
CC(C)C(=Nc1ccc(Cl)c(Cl)c1)OCc1cccc(Oc2ccc(Cl)cc2)n1 [Compound 523],22,> 0.1,–,0.00015,> 0.05,> 0.01,0.0002
CC(C)C(=Nc1ccc(C(F)(F)F)cc1)OCc1cccc(Oc2ccc(Cl)cc2)n1 [Compound 530],9.8,0.005,–,0.00027,0.05,> 0.01,0.00005
CC(C)C(=Nc1ccc(F)c(Cl)c1)OCc1cccc(Oc2ccc(F)c(F)c2)n1 [Compound 531],5,> 0.1,–,> 0.1,> 0.05,> 0.01,0.00037
